Molecular target: human 5-HT2C receptor (Homo sapiens, UniProt P28335, I156V/I160V/N158S)
Assay: cell-based

Sequence of human 5-HT2C receptor (P28335 33-458 I156V/N158S/I160V limits assumed): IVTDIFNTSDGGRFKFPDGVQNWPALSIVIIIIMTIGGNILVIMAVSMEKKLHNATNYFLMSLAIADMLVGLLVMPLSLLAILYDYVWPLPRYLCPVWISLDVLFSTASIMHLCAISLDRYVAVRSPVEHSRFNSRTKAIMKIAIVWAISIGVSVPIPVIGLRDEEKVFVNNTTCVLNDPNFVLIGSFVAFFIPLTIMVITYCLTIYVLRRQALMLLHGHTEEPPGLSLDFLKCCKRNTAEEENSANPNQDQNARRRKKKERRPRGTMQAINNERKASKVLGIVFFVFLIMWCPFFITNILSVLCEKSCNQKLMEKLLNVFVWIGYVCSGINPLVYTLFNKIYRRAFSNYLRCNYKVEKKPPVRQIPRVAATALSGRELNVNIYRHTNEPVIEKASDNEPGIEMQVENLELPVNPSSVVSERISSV

In order of rising EC50:
1. O=C(C1CN(c2c3c(nc4ccnn24)CCNCC3)C1)N1CCCNCC1 [Example 37.6]  2 nM
2. Fc1ccccc1OCC1CN(c2c3c(nc4ccnn24)CCNCC3)C1 [Example 15.2]  3 nM
3. Brc1cnn2c(N3CCC3)c3c(nc12)CCNCC3 [Example 2, 10-Azetidin-1-yl-3-bromo-6,7,8,9-tetrahydro-5H-1,4,7,10a-tetraaza-cyclohepta[f]indene]  4 nM
4. O=C(C1CN(c2c3c(nc4ccnn24)CCNCC3)C1)N1C[C@@H]2C[C@H]1CN2 [Example 37.28]  6 nM
5. O=C(C1CN(c2c3c(nc4ccnn24)CCNCC3)C1)N1CCC(Nc2ccccc2)CC1 [Example 37.43]  6 nM
6. C#CCN1CCN(C(=O)C2CN(c3c4c(nc5ccnn35)CCNCC4)C2)CC1 [Example 37.39]  7 nM
7. CC(=O)N(C)C1CCN(C(=O)C2CN(c3c4c(nc5ccnn35)CCNCC4)C2)CC1 [Example 37.30]  8 nM
8. CN(C)CCCN(C)C(=O)C1CN(c2c3c(nc4ccnn24)CCNCC3)C1 [Example 37.41]  8 nM
9. CN(Cc1ccc(C#N)cc1)C(=O)C1CN(c2c3c(nc4ccnn24)CCNCC3)C1 [Example 31.2]  14 nM
10. O=C(C1CN(c2c3c(nc4ccnn24)CCNCC3)C1)N1CCN(C2CC2)CC1 [Example 37.32]  22 nM
11. c1ccc(OCC2CN(c3c4c(nc5ccnn35)CCNCC4)C2)nc1 [Example 15.28]  24 nM
12. O=C(C1CN(c2c3c(nc4ccnn24)CCNCC3)C1)N1CCCC(F)(F)C1 [Example 31.201]  24 nM
13. CN(C)CCNC(=O)C1CN(c2c3c(nc4ccnn24)CCNCC3)C1 [Example 37.74]  29 nM
14. CN(Cc1ccc(Cl)cc1)C(=O)C1CN(c2c3c(nc4ccnn24)CCNCC3)C1 [Example 31.40]  40 nM
15. COc1ccc2c(c1)CCN2C(=O)C1CN(c2c3c(nc4ccnn24)CCNCC3)C1 [Example 31.218]  40 nM
16. O=C(C1CN(c2c3c(nc4ccnn24)CCNCC3)C1)N1CCC(C(F)(F)F)C1 (centres unmarked) [Example 31.95]  41 nM
17. O=C(C1CN(c2c3c(nc4ccnn24)CCNCC3)C1)N1CCC2(CCC2)C1 [Example 31.56]  43 nM
18. Cc1cccc(CN(C)C(=O)C2CN(c3c4c(nc5ccnn35)CCNCC4)C2)c1 [Example 31.49]  51 nM
19. CN1CCc2nc3ccnn3c(N3CC(C(=O)N4CCC(N(C)C)CC4)C3)c2CC1 [Example 36.5]  51 nM
20. CC1CC(c2ccccc2)CN1C(=O)C1CN(c2c3c(nc4ccnn24)CCNCC3)C1 (centres unmarked) [Example 31.128]  54 nM
21. COc1ccc(OC2CN(c3c4c(nc5c(C)cnn35)CCNCC4)C2)cc1 [Example 27.2]  55 nM
22. O=C(C1CN(c2c3c(nc4ccnn24)CCNCC3)C1)N1CCc2sccc2C1 [Example 31.36]  57 nM
23. O=C(C1CN(c2c3c(nc4ccnn24)CCNCC3)C1)N1CCc2ccccc2C1 [Example 31.60]  57 nM
24. O=C(NC1CC2CCC1C2)C1CN(c2c3c(nc4ccnn24)CCNCC3)C1 (centres unmarked) [Example 37.84]  62 nM
25. CC(=O)N1CCCN(C(=O)C2CN(c3c4c(nc5ccnn35)CCNCC4)C2)CC1 [Example 37.102]  67 nM
26. CN(Cc1cc(Cl)cc(Cl)c1)C(=O)C1CN(c2c3c(nc4ccnn24)CCNCC3)C1 [Example 31.165]  72 nM
27. COCC1(CNC(=O)C2CN(c3c4c(nc5ccnn35)CCNCC4)C2)CCCC1 [Example 37.69]  73 nM
28. O=C(C1CN(c2c3c(nc4ccnn24)CCNCC3)C1)N1CC[C@@H]2CCCC[C@@H]2C1 [Example 31.131]  74 nM
29. COc1cc(Cl)ccc1OC1CN(c2c3c(nc4ccnn24)CCNCC3)C1 [Example 35.21]  75 nM
30. CC(C)N1CCCN(C(=O)C2CN(c3c4c(nc5ccnn35)CCN(C)CC4)C2)CC1 [Example 36.49]  78 nM
31. O=C(C1CN(c2c3c(nc4ccnn24)CCNCC3)C1)N1CCc2cc(Cl)ccc21 [Example 31.147]  78 nM
32. CN1CCc2nc3ccnn3c(N3CC(C(=O)N4CCN(C)CC4)C3)c2CC1 [Example 36.51]  81 nM
33. Cc1cnn2c(N3CC(C(=O)N4CCC(c5ccccc5F)CC4)C3)c3c(nc12)CCNCC3 [Example 31.243]  82 nM
34. CC1CC(C)CN(C(=O)C2CN(c3c4c(nc5ccnn35)CCNCC4)C2)C1 (centres unmarked) [Example 31.22]  85 nM
35. CN1CCc2nc3ccnn3c(N3CC(C(=O)N4CCC(C(F)(F)F)C4)C3)c2CC1 (centres unmarked) [Example 36.27]  89 nM
36. CC1CN(C(=O)C2CN(c3c4c(nc5ccnn35)CCNCC4)C2)CCO1 (centres unmarked) [Example 31.34]  91 nM
37. CCOc1cccc(OC2CN(c3c4c(nc5ccnn35)CCNCC4)C2)c1 [Example 35.27]  93 nM
38. C#CCNC(=O)C1CN(c2c3c(nc4ccnn24)CCNCC3)C1 [Example 37.85]  94 nM
39. Cc1ccc2c(c1)N(C(=O)C1CN(c3c4c(nc5ccnn35)CCNCC4)C1)CC2 [Example 31.176]  95 nM
40. O=C(C1CN(c2c3c(nc4ccnn24)CCNCC3)C1)N1CC2CCCC2C1 (centres unmarked) [Example 31.166]  97 nM
41. O=C(C1CN(c2c3c(nc4ccnn24)CCNCC3)C1)N1CC[C@H](Oc2cccc(Cl)c2)C1 [Example 31.213]  103 nM
42. CCc1cnn2c(N3CCCCC3)c3c(nc12)CCNCC3 [Example 25, 3-Ethyl-10-piperidin-1-yl-6,7,8,9-tetrahydro-5H-1,4,7,10a-tetraaza-cyclohepta[f]indene]  106 nM
43. CN1CCc2nc3ccnn3c(N3CC(C(=O)NCC4CCN(C)CC4)C3)c2CC1 [Example 36.3]  108 nM
44. O=C(C1CN(c2c3c(nc4ccnn24)CCNCC3)C1)N1CC=CCC1 [Example 31.178]  109 nM
45. O=C(C1CN(c2c3c(nc4ccnn24)CCNCC3)C1)N1Cc2ccccc2C1 [Example 31.44]  113 nM
46. COc1ccc(CC2CN(c3c4c(nc5ccnn35)CCNCC4)C2)cc1 [Example 18.1]  119 nM
47. O=C(C1CN(c2c3c(nc4ccnn24)CCNCC3)C1)N1CCC(c2ccc(Br)cc2)CC1 [Example 31.112]  131 nM
48. C#CCCNC(=O)C1CN(c2c3c(nc4ccnn24)CCNCC3)C1 [Example 37.48]  141 nM
49. Clc1ccc(OC2CN(c3c4c(nc5ccnn35)CCNCC4)C2)cc1 [Example 35, 10-[3-(4-Chloro-phenoxy)-azetidin-1-yl]-6,7,8,9-tetrahydro-5H-1,4,7,10a-tetraaza-cyclohepta[f]indene]  141 nM
50. Cc1ccc(OC2CN(c3c4c(nc5ccnn35)CCNCC4)C2)cn1 [Example 35.52]  147 nM
51. C[C@@H]1C[C@H](C)CN(C(=O)C2CN(c3c4c(nc5ccnn35)CCN(C)CC4)C2)C1 [Example 36.15]  154 nM
52. CN(CC1CCCCC1)C(=O)C1CN(c2c3c(nc4ccnn24)CCNCC3)C1 [Example 31.100]  158 nM
53. O=C(C1CN(c2c3c(nc4ccnn24)CCNCC3)C1)N1CC[C@H](F)C1 [Example 31.202]  162 nM
54. c1ccc(COC2CN(c3c4c(nc5ccnn35)CCNCC4)C2)nc1 [Example 20.15]  180 nM
55. O=C(C1CN(c2c3c(nc4ccnn24)CCNCC3)C1)N1CCCC1 [Example 31.64]  199 nM
56. CC1CCCN1C(=O)C1CN(c2c3c(nc4ccnn24)CCNCC3)C1 (centres unmarked) [Example 31.73]  252 nM
57. O=C(C1CN(c2c3c(nc4ccnn24)CCNCC3)C1)N1CCOCC1 [Example 31.17]  276 nM
58. CN1CCc2nc3ccnn3c(N3CC(C(=O)N4CC[C@H]5CNC[C@H]54)C3)c2CC1 [Example 36.40]  283 nM
59. CCC1CCC(C)N(C(=O)C2CN(c3c4c(nc5ccnn35)CCNCC4)C2)C1 (centres unmarked) [Example 31.184]  287 nM
60. Cc1cc(Cl)ccc1OC1CN(c2c3c(nc4ccnn24)CCNCC3)C1 [Example 35.20]  326 nM
61. c1cc2nc3c(c(N4CC(OC5CCCC5)C4)n2n1)CCNCC3 [Example 20.5]  358 nM
62. Cn1c(C2CN(c3c4c(nc5ccnn35)CCNCC4)C2)nc2cc(C#N)ccc21 [Example 34.18]  388 nM
63. O=C(NC1CCCC1)C1CN(c2c3c(nc4ccnn24)CCNCC3)C1 [Example 31.18]  458 nM
64. Brc1cccc(OC2CN(c3c4c(nc5ccnn35)CCNCC4)C2)c1 [Example 35.14]  477 nM
65. FC(F)(F)c1ccnc(OC2CN(c3c4c(nc5ccnn35)CCNCC4)C2)n1 [Example 35.48]  526 nM
66. c1ccc2[nH]c(C3CN(c4c5c(nc6ccnn46)CCNCC5)C3)nc2c1 [Example 34]  611 nM
67. FC(F)(F)Oc1ccccc1OC1CN(c2c3c(nc4ccnn24)CCNCC3)C1 [Example 35.18]  636 nM
68. c1cc2c(c(OC3CN(c4c5c(nc6ccnn46)CCNCC5)C3)c1)CCCC2 [Example 35.25]  666 nM
69. CC1CNCCc2c1nc1c(Br)cnn1c2N1CCC1 (centres unmarked) [Example 4, 10-Azetidin-1-yl-3-bromo-5-methyl-6,7,8,9-tetrahydro-5H-1,4,7,10a-tetraaza-cyclohepta[f]indene]  679 nM
70. c1cc2nc3c(c(N4CCCC4)n2n1)CCNCC3 [Example 7.1]  764 nM
71. O=C(NC1(c2ccc(F)cc2)CC1)C1CN(c2c3c(nc4ccnn24)CCNCC3)C1 [Example 31.93]  786 nM
72. CNC(=O)C1CN(c2c3c(nc4ccnn24)CCNCC3)C1 [Example 9.1]  818 nM
73. CN1CCc2nc3ccnn3c(N3CC(C(=O)NC4CCC(C)(C)CC4)C3)c2CC1 [Example 36.39]  911 nM
74. c1cc2c3c(cccc3c1)CN(c1c3c(nc4ccnn14)CCNCC3)C2 [Example 1.50]  924 nM
75. COc1ccccc1C1CCN(c2c3c(nc4ccnn24)CCNCC3)C1 (centres unmarked) [Example 1.21]  1150 nM
76. O=C(NCc1ccccc1)C1CCN(c2c3c(nc4ccnn24)CCNCC3)CC1 [Example 1.24]  1310 nM
77. CC1(C(=O)N2CCc3c(cccc3C(F)(F)F)C2)CN(c2c3c(nc4ccnn24)CCNCC3)C1 [Example 32.3]  1960 nM
78. CC(c1ccccc1)n1c(C2CN(c3c4c(nc5ccnn35)CCNCC4)C2)nc2cc(Cl)ccc21 (centres unmarked) [Example 34.37]  2380 nM
79. CN(C)C(=O)[C@H]1CCN(c2c3c(nc4ccnn24)CCNCC3)C1 [Example 1.63]  2680 nM
80. Clc1ccccc1OC1CCN(c2c3c(nc4ccnn24)CCNCC3)CC1 [Example 1.55]  2780 nM

Reference: US20120165304A1, “6,7,8,9-Tetrahydro-5H-1,4,7,10a-tetraaza-cyclohept[f]indene derivatives, pharmaceutical compositions containing these compounds, their use and processes for preparing them” (BOEHRINGER INGELHEIM INTERNATIONAL GMBH, priority 2008, published 2012)
